From the kinase profiling compilation of Christmann-Franck et al. (2016)

Legend:
Experiment in all cases: KINOMEscan competition binding
Settings in all cases: compound 10.0 µM
AAK1 (human) = AAK1 (human) (UniProt Q2M2I8)
CAMK1D (human) = CAMK1D (human) (UniProt Q8IU85)
CAMK2D (human) = CAMK2D (human) (UniProt Q13557)
CDK2 (human) = CDK2 (human) (UniProt P24941)
CDK9 (human) = CDK9 (human) (UniProt P50750)
CDKL5 (human) = CDKL5 (human) (UniProt O76039)
CHUK (human) = CHUK (human) (UniProt O15111)
CLK4 (human) = CLK4 (human) (UniProt Q9HAZ1)
CSNK1D (human) = CSNK1D (human) (UniProt P48730)
CSNK1D (human), sequence (P48730 whole entry, looked up): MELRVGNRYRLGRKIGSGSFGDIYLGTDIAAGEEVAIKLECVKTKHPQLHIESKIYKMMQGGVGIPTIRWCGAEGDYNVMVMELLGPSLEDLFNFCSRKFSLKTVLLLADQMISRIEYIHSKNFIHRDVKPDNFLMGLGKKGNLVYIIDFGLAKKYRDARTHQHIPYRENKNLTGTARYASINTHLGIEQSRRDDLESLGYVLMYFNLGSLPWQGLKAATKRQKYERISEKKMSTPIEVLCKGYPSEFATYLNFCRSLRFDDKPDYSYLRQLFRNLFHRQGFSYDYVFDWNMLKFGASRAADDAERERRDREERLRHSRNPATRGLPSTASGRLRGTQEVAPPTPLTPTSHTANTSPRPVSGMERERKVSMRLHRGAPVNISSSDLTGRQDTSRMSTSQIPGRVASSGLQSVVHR

DAPK3 (human) = DAPK3 (human) (UniProt O43293)
EPHA6 (human) = EPHA6 (human) (UniProt Q9UF33)
EPHA6 (human), sequence (Q9UF33 whole entry, looked up): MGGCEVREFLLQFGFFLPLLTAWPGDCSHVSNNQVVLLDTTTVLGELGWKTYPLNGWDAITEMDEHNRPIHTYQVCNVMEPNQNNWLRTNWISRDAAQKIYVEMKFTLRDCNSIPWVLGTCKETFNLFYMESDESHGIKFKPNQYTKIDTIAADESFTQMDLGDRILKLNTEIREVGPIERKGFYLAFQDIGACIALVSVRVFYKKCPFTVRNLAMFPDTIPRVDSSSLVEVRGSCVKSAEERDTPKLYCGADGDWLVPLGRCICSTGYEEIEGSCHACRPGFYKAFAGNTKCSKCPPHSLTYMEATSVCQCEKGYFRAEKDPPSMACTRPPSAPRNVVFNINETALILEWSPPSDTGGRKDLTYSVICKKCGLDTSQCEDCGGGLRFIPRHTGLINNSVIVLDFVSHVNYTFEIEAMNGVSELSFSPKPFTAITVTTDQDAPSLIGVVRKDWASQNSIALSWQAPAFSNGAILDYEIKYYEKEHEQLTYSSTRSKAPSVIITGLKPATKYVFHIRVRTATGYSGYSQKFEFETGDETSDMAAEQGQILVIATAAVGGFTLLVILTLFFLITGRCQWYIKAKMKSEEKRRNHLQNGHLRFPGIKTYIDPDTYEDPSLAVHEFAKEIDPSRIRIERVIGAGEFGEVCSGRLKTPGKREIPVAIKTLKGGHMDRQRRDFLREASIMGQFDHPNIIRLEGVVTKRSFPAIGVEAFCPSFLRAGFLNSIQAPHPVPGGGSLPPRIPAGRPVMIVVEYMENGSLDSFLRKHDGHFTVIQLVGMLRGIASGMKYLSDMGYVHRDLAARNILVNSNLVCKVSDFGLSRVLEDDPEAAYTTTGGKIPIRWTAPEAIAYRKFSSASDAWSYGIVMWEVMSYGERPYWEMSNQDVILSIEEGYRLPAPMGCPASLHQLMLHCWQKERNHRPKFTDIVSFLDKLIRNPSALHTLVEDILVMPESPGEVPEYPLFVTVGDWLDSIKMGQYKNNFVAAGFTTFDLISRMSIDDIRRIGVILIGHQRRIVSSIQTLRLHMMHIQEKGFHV

FGR (human) = FGR (human) (UniProt P09769)
FYN (human) = FYN (human) (UniProt P06241)
FYN (human), sequence (P06241 whole entry, looked up): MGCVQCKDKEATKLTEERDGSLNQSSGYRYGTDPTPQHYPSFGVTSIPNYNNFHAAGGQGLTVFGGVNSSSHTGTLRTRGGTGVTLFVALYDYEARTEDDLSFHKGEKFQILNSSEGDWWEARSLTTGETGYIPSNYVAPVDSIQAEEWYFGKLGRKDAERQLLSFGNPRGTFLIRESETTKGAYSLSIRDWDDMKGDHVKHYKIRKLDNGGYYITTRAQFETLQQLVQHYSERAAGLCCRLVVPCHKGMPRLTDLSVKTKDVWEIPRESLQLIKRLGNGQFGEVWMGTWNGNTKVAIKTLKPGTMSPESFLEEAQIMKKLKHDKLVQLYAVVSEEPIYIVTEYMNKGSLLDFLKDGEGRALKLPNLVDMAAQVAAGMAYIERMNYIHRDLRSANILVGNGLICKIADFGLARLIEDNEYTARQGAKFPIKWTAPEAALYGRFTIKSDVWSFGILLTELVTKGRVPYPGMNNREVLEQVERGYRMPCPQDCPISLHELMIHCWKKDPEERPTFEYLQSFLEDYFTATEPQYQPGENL

GRK1 (human) = GRK1 (human) (UniProt Q15835)
GSK3A (human) = GSK3A (human) (UniProt P49840)
ICK (human) = ICK (human) (UniProt Q9UPZ9)
[1] = biological target: JAK1 JH2 pseudokinase (human) (UniProt P23458)
JAK1 JH2 pseudokinase (human), sequence (P23458 whole entry, looked up): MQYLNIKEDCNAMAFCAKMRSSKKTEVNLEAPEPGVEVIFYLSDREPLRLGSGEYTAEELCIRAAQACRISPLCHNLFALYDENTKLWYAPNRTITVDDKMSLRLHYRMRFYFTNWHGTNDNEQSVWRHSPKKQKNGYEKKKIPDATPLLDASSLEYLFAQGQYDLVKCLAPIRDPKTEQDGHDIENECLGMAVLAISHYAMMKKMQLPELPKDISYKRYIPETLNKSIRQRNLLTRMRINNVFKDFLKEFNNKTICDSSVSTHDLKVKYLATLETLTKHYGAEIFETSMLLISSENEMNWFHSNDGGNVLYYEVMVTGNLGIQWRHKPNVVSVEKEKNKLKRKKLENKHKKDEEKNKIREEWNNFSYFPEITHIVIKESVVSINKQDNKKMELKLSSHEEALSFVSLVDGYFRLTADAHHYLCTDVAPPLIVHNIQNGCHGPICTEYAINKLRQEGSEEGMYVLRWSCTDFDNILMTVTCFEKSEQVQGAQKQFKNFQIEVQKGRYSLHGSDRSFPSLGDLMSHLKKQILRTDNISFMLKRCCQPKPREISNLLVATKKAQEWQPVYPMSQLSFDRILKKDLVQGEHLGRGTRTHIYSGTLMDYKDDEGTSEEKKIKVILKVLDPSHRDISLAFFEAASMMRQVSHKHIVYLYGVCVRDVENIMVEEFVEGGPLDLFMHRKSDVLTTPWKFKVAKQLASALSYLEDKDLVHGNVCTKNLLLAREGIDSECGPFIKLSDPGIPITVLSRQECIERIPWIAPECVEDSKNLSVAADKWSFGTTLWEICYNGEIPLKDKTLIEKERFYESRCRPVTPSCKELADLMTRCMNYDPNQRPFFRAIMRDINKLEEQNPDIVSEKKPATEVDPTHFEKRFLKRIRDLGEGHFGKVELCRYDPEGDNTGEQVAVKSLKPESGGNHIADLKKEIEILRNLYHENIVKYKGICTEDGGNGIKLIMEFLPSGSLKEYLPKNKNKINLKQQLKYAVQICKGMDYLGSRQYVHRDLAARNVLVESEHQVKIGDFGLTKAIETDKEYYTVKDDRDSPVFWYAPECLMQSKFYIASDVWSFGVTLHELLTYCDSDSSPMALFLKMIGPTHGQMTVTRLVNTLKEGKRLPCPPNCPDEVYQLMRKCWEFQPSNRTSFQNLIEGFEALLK

[2] = biological target: JAK3 JH1 catalytic (human) (UniProt P52333)
[3] = system: KIT (human), P10721 [L576P]
LIMK1 (human) = LIMK1 (human) (UniProt P53667)
MAP3K15 (human) = MAP3K15 (human) (UniProt Q6ZN16)
MAP3K2 (human) = MAP3K2 (human) (UniProt Q9Y2U5)
MAPK14 (human) = MAPK14 (human) (UniProt Q16539)
MARK4 (human) = MARK4 (human) (UniProt Q96L34)
MERTK (human) = MERTK (human) (UniProt Q12866)
MLTK (human) = MLTK (human) (UniProt Q9NYL2)
MLTK (human), sequence (Q9NYL2 whole entry, looked up): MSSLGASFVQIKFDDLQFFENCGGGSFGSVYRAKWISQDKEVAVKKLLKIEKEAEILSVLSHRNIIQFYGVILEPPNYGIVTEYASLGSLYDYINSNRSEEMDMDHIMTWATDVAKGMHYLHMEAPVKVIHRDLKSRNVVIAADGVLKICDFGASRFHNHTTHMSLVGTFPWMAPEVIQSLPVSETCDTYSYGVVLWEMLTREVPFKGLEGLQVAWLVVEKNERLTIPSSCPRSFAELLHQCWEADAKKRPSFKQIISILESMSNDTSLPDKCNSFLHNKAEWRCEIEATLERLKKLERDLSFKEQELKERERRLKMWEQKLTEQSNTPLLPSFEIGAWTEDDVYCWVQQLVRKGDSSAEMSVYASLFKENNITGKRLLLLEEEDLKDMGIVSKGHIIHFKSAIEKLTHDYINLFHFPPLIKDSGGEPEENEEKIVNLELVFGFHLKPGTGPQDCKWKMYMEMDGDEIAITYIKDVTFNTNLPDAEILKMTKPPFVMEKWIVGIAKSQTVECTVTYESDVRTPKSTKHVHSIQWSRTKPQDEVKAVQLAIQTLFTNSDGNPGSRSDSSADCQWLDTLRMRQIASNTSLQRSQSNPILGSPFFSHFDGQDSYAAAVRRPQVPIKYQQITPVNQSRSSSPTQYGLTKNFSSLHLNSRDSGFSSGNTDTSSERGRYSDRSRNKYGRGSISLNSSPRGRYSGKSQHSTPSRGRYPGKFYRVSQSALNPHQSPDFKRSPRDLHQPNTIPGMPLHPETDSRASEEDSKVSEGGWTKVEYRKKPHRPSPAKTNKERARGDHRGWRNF

MST1R (human) = MST1R (human) (UniProt Q04912)
PAK1 (human) = PAK1 (human) (UniProt Q13153)
PIP4K2C (human) = PIP4K2C (human) (UniProt Q8TBX8)
PIP5K1C (human) = PIP5K1C (human) (UniProt O60331)
PKN3 (M.tuberculosis) = PKN3 (M.tuberculosis) (UniProt Q6P5Z2)
PRKCD (human) = PRKCD (human) (UniProt Q05655)
PRKD2 (human) = PRKD2 (human) (UniProt Q9BZL6)
PTK2B (human) = PTK2B (human) (UniProt Q14289)
RIPK2 (human) = RIPK2 (human) (UniProt O43353)
RIPK2 (human), sequence (O43353 whole entry, looked up): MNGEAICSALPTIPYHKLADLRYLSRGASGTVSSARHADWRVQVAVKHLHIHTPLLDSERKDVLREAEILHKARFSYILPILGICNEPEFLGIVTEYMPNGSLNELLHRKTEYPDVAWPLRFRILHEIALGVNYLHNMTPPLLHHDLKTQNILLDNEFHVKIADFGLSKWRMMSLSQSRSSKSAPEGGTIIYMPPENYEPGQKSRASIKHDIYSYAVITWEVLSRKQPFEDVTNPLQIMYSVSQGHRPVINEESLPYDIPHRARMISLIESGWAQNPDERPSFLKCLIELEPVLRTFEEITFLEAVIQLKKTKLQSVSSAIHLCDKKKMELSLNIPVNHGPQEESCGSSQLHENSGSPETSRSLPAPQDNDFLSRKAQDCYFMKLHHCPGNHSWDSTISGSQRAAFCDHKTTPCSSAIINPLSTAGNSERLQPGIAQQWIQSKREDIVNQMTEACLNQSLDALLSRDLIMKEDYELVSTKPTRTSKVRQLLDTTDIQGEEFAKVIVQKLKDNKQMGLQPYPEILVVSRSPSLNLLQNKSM

RPS6KA2 KD2 (human) = RPS6KA2 KD2 (human) (UniProt Q15349)
RPS6KA5 KD2 (human) = RPS6KA5 KD2 (human) (UniProt O75582)
STK11 (human) = STK11 (human) (UniProt Q15831)
STK16 (human) = STK16 (human) (UniProt O75716)
TTK (human) = TTK (human) (UniProt P33981)

CAMK1D (human), sequence (Q8IU85 whole entry, looked up): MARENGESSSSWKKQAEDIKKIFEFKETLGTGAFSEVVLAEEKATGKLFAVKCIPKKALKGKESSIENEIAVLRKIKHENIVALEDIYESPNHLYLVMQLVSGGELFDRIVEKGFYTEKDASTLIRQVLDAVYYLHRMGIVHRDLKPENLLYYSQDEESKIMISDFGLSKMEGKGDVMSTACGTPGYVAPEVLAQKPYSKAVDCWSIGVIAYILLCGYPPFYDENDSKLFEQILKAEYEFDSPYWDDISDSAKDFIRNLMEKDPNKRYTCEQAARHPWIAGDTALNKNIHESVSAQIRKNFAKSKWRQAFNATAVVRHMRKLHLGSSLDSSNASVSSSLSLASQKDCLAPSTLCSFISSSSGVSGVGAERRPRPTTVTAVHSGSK

## COc1ccc(N(C(=O)Oc2c(C)cccc2C)c2ccnc(Nc3ccc(N4CCN(C)CC4)cc3)n2)c(OC)c1
AAK1 (human)
  kinase still bound, per cent of control: 13%
CAMK1D (human)
  kinase still bound, per cent of control: 100%
CAMK2D (human)
  kinase still bound, per cent of control: 100%
CDK2 (human)
  kinase still bound, per cent of control: 65%
CDK9 (human)
  kinase still bound, per cent of control: 33%
CDKL5 (human)
  kinase still bound, per cent of control: 100%
CHUK (human)
  kinase still bound, per cent of control: 92%
CLK4 (human)
  kinase still bound, per cent of control: 100%
CSNK1D (human)
  kinase still bound, per cent of control: 82%
DAPK3 (human)
  kinase still bound, per cent of control: 88%
EPHA6 (human)
  kinase still bound, per cent of control: 0%
FGR (human)
  kinase still bound, per cent of control: 0.15%
FYN (human)
  kinase still bound, per cent of control: 0%
GRK1 (human)
  kinase still bound, per cent of control: 100%
GSK3A (human)
  kinase still bound, per cent of control: 100%
ICK (human)
  kinase still bound, per cent of control: 100%
[1]
  kinase still bound, per cent of control: 84%
[2]
  kinase still bound, per cent of control: 0.25%
[3]
  kinase still bound, per cent of control: 1%
LIMK1 (human)
  kinase still bound, per cent of control: 0%
MAP3K15 (human)
  kinase still bound, per cent of control: 83%
MAP3K2 (human)
  kinase still bound, per cent of control: 2.2%
MAPK14 (human)
  kinase still bound, per cent of control: 52%
MARK4 (human)
  kinase still bound, per cent of control: 49%
MERTK (human)
  kinase still bound, per cent of control: 20%
MLTK (human)
  kinase still bound, per cent of control: 24%
MST1R (human)
  kinase still bound, per cent of control: 16%
PAK1 (human)
  kinase still bound, per cent of control: 6.8%
PIP4K2C (human)
  kinase still bound, per cent of control: 100%
PIP5K1C (human)
  kinase still bound, per cent of control: 96%
PKN3 (M.tuberculosis)
  kinase still bound, per cent of control: 90%
PRKCD (human)
  kinase still bound, per cent of control: 9.8%
PRKD2 (human)
  kinase still bound, per cent of control: 6.4%
PTK2B (human)
  kinase still bound, per cent of control: 9%
RIPK2 (human)
  kinase still bound, per cent of control: 0%
RPS6KA2 KD2 (human)
  kinase still bound, per cent of control: 78%
RPS6KA5 KD2 (human)
  kinase still bound, per cent of control: 93%
STK11 (human)
  kinase still bound, per cent of control: 60%
STK16 (human)
  kinase still bound, per cent of control: 15%
TTK (human)
  kinase still bound, per cent of control: 42%

## CN(C)C/C=C/C(=O)Nc1ccc(C(=O)Nc2cccc(Nc3nccc(-c4cccnc4)n3)c2)cc1
AAK1 (human)
  kinase still bound, per cent of control: 5.2%
CAMK1D (human)
  kinase still bound, per cent of control: 100%
CAMK2D (human)
  kinase still bound, per cent of control: 67%
CDK2 (human)
  kinase still bound, per cent of control: 100%
CDK9 (human)
  kinase still bound, per cent of control: 90%
CDKL5 (human)
  kinase still bound, per cent of control: 60%
CHUK (human)
  kinase still bound, per cent of control: 54%
CLK4 (human)
  kinase still bound, per cent of control: 2.2%
CSNK1D (human)
  kinase still bound, per cent of control: 20%
DAPK3 (human)
  kinase still bound, per cent of control: 62%
EPHA6 (human)
  kinase still bound, per cent of control: 90%
FGR (human)
  kinase still bound, per cent of control: 86%
FYN (human)
  kinase still bound, per cent of control: 100%
GRK1 (human)
  kinase still bound, per cent of control: 98%
GSK3A (human)
  kinase still bound, per cent of control: 26%
ICK (human)
  kinase still bound, per cent of control: 62%
[1]
  kinase still bound, per cent of control: 0.6%
[2]
  kinase still bound, per cent of control: 10%
[3]
  kinase still bound, per cent of control: 0.35%
LIMK1 (human)
  kinase still bound, per cent of control: 60%
MAP3K15 (human)
  kinase still bound, per cent of control: 56%
MAP3K2 (human)
  kinase still bound, per cent of control: 79%
MAPK14 (human)
  kinase still bound, per cent of control: 99%
MARK4 (human)
  kinase still bound, per cent of control: 26%
MERTK (human)
  kinase still bound, per cent of control: 100%
MLTK (human)
  kinase still bound, per cent of control: 62%
MST1R (human)
  kinase still bound, per cent of control: 100%
PAK1 (human)
  kinase still bound, per cent of control: 90%
PIP4K2C (human)
  kinase still bound, per cent of control: 0.8%
PIP5K1C (human)
  kinase still bound, per cent of control: 20%
PKN3 (M.tuberculosis)
  kinase still bound, per cent of control: 84%
PRKCD (human)
  kinase still bound, per cent of control: 100%
PRKD2 (human)
  kinase still bound, per cent of control: 100%
PTK2B (human)
  kinase still bound, per cent of control: 100%
RIPK2 (human)
  kinase still bound, per cent of control: 84%
RPS6KA2 KD2 (human)
  kinase still bound, per cent of control: 100%
RPS6KA5 KD2 (human)
  kinase still bound, per cent of control: 98%
STK11 (human)
  kinase still bound, per cent of control: 83%
STK16 (human)
  kinase still bound, per cent of control: 1.2%
TTK (human)
  kinase still bound, per cent of control: 77%
